Measurements published in US9573956B2, “Compounds as dual inhibitors of phosphodiesterases and histone deacetylases” (FUNDACIÓN PARA LA INVESTIGACIÓN MÉDICA APLICADA, priority 2013, dated 2017).
Marks after values point to notes of the source that are not given here.

What was measured:
acetylated-α-tubulin = assay: AD-related markers in Tg2576 neurons: acetylated-tubulin; assay type: cell-based; conditions: Mus musculus, Neuron, 48 h, treated two days, EC50 = 50% increase in acetylated-α-tubulin over basal, read-out: AcTub (EC50)
HDAC1 = HDAC1 (Homo sapiens, UniProt Q13547); assay: HDAC enzyme activity assay (fluorogenic substrate), HDAC1; assay type: biochemical; conditions: recombinant enzyme; read-out: HDAC1 inhibition (IC50)
[1] = Pharmacokinetics, plasma and brain concentrations in wild type mice; assay type: in vivo; conditions: mouse, ip; for CMax (brain; nmol/Kg): in vivo; for Tmax / Cmax: single intraperitoneal injection, wild type mice; for Tmax: time of maximum concentration in brain; for Cmax: plasma, at tMax, (Standard Deviation)
Procedure: Plasma and brain samples for measuring compounds concentrations were collected at predetermined times from four wild type mice per point. Three time points were measured: 0.25, 0.5 and 1.0 hour. Compounds concentration was measured using a Xevo-TQ MS triple quadropole mass spectrometer with an electrospray ionization (ESI) source and an Acquity UPLC (Waters, Manchester, UK).
[…]. Compounds were injected as a single intraperitoneal injection. Animals were killed by decapitation.
Plasma. Blood was collected into tubes containing EDTA and plasma was collected via centrifugation (4° C., 13200 rpm, 5 min) and stored at −80° C. until analysis.
Brain. Brains were collected immediately after mice death. The brains were excised, weighed and frozen at −80° C. until further process for analysis.
Chromatographic separation was performed by gradient elution at 0.4 mL/min using an Acquity UPLC BEH C18 column (100×2.1 mm, 1.7 μm particle size; Waters). The mobile phase consisted of A: water with 0.1% formic acid, B: methanol with 0.1% formic acid. After 1.5 min at the initial condition of 95% A, solvent B was increased from 5% to 100% over 2 min, maintained at 100% for 1.5 min, then a linear gradient to initial conditions was applied for 0.1 min and maintained for 3.4 minutes to re-equilibrate the column, giving a cycle time of 8.5 min. The autosampler temperature was set at 10° C. and column temperature at 45° C.
Compounds were monitored using a triple quadrupole mass spectrometer equipped with an electrospray ionization interface. For detection and quantification, a capillary voltage of 3.5 kV and a cone voltage of 38 V were used. Source and desolvation temperatures were 150° C. and 650° C., respectively. Ultra-high purity nitrogen was used for cone gas (75 L h^−1) and desolvation gas (1000 L h^−1). The electrospray ionization operated in the positive mode, and the collision gas used was ultra-pure argon at a flow rate of 0.15 mL min^−1.
Quantification was achieved by external calibration using matrix-matched standards. Concentrations were calculated using a weighted least-squares linear regression (W=1/×). […]. The mixture was then agitated for 10 min and centrifuged at 13200 rpm for 5 min at 4° C. The resulting supernatants were transferred to a Ostro plate (Waters, Manchester, UK), designed to remove phospholipids. The resulting eluents were evaporated at 37° C. under a stream of nitrogen. Residues were dissolved in 75 μL of a mixture of methanol and water (50:50, v:v). A 10-uL aliquot of the resulting solution was injected onto the LC-MS/MS system for analysis. Frozen plasma samples were thawed at room temperature, vortexed thoroughly and subjected to the above described extraction procedure. Brain samples were thawed unassisted at room temperature and homogenized using a Branson 250 ultrasonic sonifier (Branson, Danbury, Conn., USA). When homogenized, 75 mg were weighted and extracted as described previously.
Concentration values obtained from the LC-MS/MS analyses are described in Table 4.

HDAC3 = biological target: T1, HDAC3 (Homo sapiens, UniProt O15379); assay: HDAC enzyme activity assay (fluorogenic substrate), HDAC3; assay type: biochemical; conditions: recombinant enzyme; read-out: HDAC3 inhibition (IC50)
T1 construct: is full-length with C-terminal his tag and human NCOR2, N-terminal GST tag; His (C); purchased BPS Biosciences 50003; host or cells: baculovirus infected Sf9 cells

PDE5A = biological target: T2, PDE5A (Homo sapiens, UniProt O76074); assay: PDE enzyme activity assay (HTRF cGMP), PDE5A; assay type: biochemical; conditions: recombinant enzyme; read-out: PDE5A1 inhibition (IC50)
T2 construct: they are full-length with N-terminal GST tag; GST (N); purchased BPS Biosciences 60050; host or cells: baculovirus infected Sf9 cells

pCREB [2] = assay: PDE activity in wild type primary neurons (Western blot pCREB); assay type: cell-based; conditions: Mus musculus, Neuron, 0.5 h, 30 min, EC50 = 50% increase in pCREB over basal
AcH3 = assay: In-vivo activity, hippocampus of wild type mice: AcH3; parameters: species or system mouse; conditions: i.p. 40 mg/kg, hippocampus one hour later
Procedure: (§1) To determine the ability of the compounds to inhibit HDAC and PDE in the brain, the compound was administered to wild type mice by i.p. at a dose of 40 mg/kg (n=3). Another group of animals received the vehicle (1/1/8, v:v:v, DMSO/Tween 20/saline). One hour later, mice were sacrificed by cervical dislocation and their hippocampus was quickly dissected from the brains.
(§2) Total tissue homogenates were obtained by homogenizing the hippocampus in a cold lysis buffer with protease inhibitors (0.2 M NaCl, 0.1 M HEPES, 10% glycerol, 200 mM NaF, 2 mM Na4P2O7, 5 mM EDTA, 1 mM EGTA, 2 mM DTT, 0.5 mM PMSF, 1 mM Na3VO4 and Complete Protease Inhibitor Cocktail, Roche Diagnostics). The homogenate was then centrifuged at 14,000×g at 4° C. for 20 min and the supernatant aliquoted and stored at −80° C. Total protein concentrations were determined using the BioRad Bradford protein assay (BioRad Laboratories). Protein samples were analyzed as described in the “in vitro” section.

pCREB [3] = assay: In-vivo activity, hippocampus of wild type mice: pCREB; parameters: species or system mouse; conditions: i.p. 40 mg/kg, hippocampus one hour later
Procedure: as §1, §2

[4] = test system: acetylated histone 3 at Lys9 (AcH3K9); assay: HDAC activity in wild type primary neurons (Western blot AcH3K9); assay type: cell-based, mouse; conditions: Mus musculus, Neuron, 0.5 h, 30 min, EC50 = 50% increase in AcH3K9 over basal, read-out: AcH3 (EC50)
[5] = test system: phosphorylated tau (p-tau); assay: AD-related markers in Tg2576 neurons: pTau; assay type: cell-based; conditions: Mus musculus, Neuron, 48 h, treated two days, EC50 = 50% decrease in pTau over basal
PDE9A isoform b = biological target: T3, PDE9A isoform b (Homo sapiens, UniProt O76083); assay: PDE enzyme activity assay (HTRF cGMP), PDE9A; assay type: biochemical; conditions: recombinant enzyme; read-out: PDE9A inhibition (IC50)
T3 construct: they are full-length with N-terminal GST tag; GST (N); purchased BPS Biosciences 60090; host or cells: baculovirus infected Sf9 cells
T3 sequence (O76083 1-533 isoform O76083-2): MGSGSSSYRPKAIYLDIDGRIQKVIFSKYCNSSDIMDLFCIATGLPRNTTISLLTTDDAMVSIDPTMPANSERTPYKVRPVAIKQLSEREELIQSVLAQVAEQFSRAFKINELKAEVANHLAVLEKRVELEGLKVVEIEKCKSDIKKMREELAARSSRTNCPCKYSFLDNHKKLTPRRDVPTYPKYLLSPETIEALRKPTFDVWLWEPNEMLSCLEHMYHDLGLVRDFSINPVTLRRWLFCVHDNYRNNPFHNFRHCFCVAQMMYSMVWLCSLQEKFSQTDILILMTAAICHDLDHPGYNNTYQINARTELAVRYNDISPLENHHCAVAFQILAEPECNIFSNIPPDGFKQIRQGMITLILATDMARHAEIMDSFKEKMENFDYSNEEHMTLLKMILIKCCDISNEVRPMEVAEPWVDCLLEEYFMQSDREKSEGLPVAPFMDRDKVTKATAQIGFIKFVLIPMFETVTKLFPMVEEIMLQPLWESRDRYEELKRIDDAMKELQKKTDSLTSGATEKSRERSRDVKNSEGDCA

HDAC1, sequence (Q13547 whole entry): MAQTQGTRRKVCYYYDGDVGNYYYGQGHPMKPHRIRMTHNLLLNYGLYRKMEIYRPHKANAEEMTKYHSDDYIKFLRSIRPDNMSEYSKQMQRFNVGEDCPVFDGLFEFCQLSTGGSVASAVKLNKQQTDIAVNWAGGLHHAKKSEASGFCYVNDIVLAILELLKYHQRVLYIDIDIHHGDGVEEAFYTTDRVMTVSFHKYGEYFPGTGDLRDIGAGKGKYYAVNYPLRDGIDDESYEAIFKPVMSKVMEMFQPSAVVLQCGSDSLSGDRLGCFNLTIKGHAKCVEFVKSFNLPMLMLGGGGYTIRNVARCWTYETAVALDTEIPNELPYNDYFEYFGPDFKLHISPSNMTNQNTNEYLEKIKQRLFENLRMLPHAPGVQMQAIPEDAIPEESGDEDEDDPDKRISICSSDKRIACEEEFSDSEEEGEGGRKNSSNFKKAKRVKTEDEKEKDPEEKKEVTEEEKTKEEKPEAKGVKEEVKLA
T1 sequence (O15379 whole entry): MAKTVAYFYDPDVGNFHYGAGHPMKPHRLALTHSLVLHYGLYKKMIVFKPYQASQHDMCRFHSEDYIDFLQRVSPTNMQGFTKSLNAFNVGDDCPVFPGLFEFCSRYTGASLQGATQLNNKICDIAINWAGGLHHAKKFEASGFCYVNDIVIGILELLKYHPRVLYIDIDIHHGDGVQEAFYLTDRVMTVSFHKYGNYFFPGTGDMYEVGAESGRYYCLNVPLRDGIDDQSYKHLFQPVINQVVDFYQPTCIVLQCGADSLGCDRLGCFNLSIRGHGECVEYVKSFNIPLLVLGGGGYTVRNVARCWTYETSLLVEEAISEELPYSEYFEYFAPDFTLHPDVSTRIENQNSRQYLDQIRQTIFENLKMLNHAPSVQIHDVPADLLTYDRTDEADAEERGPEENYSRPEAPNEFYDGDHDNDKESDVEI
T1 sequence (Q9Y618 395-489 partner limits assumed): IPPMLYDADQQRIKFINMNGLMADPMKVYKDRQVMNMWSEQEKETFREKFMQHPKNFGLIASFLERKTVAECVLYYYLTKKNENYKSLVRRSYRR

| Compound | EC50 (acetylated-α-tubulin) | IC50 (HDAC1) | CMax (brain; nmol/Kg) ([1]; 20 mg/kg) | Tmax ([1]; dosage 20 mg/Kg) | Cmax ([1]; dosage 20 mg/Kg) | IC50 (HDAC3) | IC50 (PDE5A) | EC50 (pCREB [2]) | AcH3, increment in biological response vs basal (AcH3) | pCREB, increment in biological response vs basal (pCREB [3]) | EC50 [4] | EC50 [5] | CMax (brain; nmol/Kg) ([1]; 40 mg/kg) | Tmax ([1]; dosage 40 mg/Kg) | Cmax ([1]; dosage 40 mg/Kg) | IC50 (PDE9A isoform b) |
| --- | --- | --- | --- | --- | --- | --- | --- | --- | --- | --- | --- | --- | --- | --- | --- | --- |
| CCCc1nn(C)c2c(=O)[nH]c(-c3cc(Cc4ccc(C(=O)NO)s4)ccc3OCC)nc12 [Example 1-16] | 0.01 to 1 µM | 0.01 to 1 µM | 102 (7)^c nmol/Kg | 30 min | 11800 nM | 1 to 10 µM | 0.01 to 1 µM | 0.01 to 1 µM | ++ (basal×1≦(++)<basal×2) | + (basal×1 means no increment (+)) | 0.01 to 1 µM | 0.01 to 1 µM |  |  |  |  |
| CCCc1nn(C)c2c(=O)[nH]c(-c3cc(CC4CC(C(=O)NO)C4)ccc3OCC)nc12 (racemic) [Example 1-19, 3-[[4-ethoxy-3-(1-methyl-7-oxo-3-propyl-6H-pyrazolo[4,3-d]pyrimidin-5-yl)phenyl]methyl]cyclobutanecarbohydroxamic acid] | 0.01 to 1 µM | 0.01 to 1 µM |  |  |  | 0.01 to 1 µM | 0.01 to 1 µM | 0.01 to 1 µM | +++ (basal×2≦(+++)<basal×3) | +++ (basal×2≦(+++)<basal×3) | 0.01 to 1 µM | 0.01 to 1 µM | 609 (178)^c nmol/Kg | 15 min | 15800 nM |  |
| CCCc1nn(C)c2c(=O)[nH]c(-c3cc(Cc4ccc(C(=O)NO)cc4)ccc3OCC)nc12 [Example 1-15, 4-[[4-ethoxy-3-(1-methyl-7-oxo-3-propyl-6H-pyrazolo[4,3-d]pyrimidin-5-yl)phenyl]methyl]benzenecarbohydroxamic acid] | 0.01 to 1 µM | 0.01 to 1 µM | 29 (8)^c nmol/Kg | 15 min | 653 nM | 1 to 10 µM | 0.01 to 1 µM | 0.01 to 1 µM | + (basal×1 means no increment (+)) | + (basal×1 means no increment (+)) | 0.01 to 1 µM |  |  |  |  |  |
| CCCc1nn(C)c2c(=O)[nH]c(-c3cc(S(=O)(=O)N4CCN(c5ncc(C(=O)NO)cn5)CC4)ccc3OCC)nc12 [Example 1-06, 2-(4-[3-(6,7-Dihydro-1-methyl-7-oxo-3-propyl-1H-pyrazolo[4,3-d]pyrimidin-5-yl)-4-ethoxyphenylsulfonyl]piperazin-1-yl)-N-hydroxypyrimidine-5-carboxamide] | 0.01 to 1 µM | < 0.01 µM | 5.8 (1.8)^c nmol/Kg | 15 min | 283 nM | 0.01 to 1 µM | < 0.01 µM | 0.01 to 1 µM | +++ (basal×2≦(+++)<basal×3) | +++ (basal×2≦(+++)<basal×3) | 0.01 to 1 µM |  |  |  |  | > 10 µM |
